Test system: microbial cell containing a nitrile hydratase
Assay type: biochemical
Conditions: benzene 26 ppm or acrolein 2 ppm in raw material acrylonitrile; more wet microbial cell needed
Experimental: There were prepared a 1-liter glass flask equipped with a stirrer as a first reactor and a Teflon (trademark) tube with an inside diameter of 5 mm and a length of 20 m as a second reactor. To the first reactor was charged 400 g of water in advance.
In accordance with the method described in Japanese Patent Application Laid-Open Publication No. 2001-340091, a microbial cell containing a nitrile hydratase was cultured and the resulting wet microbial cell was suspended in a 0.3 mM-NaOH aqueous solution. The suspension and the acrylonitrile b were continuously fed into the first reactor under stirring at a rate of 49 g/h and 31 g/h, respectively. In addition, the reaction solution was continuously taken out from the first reactor at a rate of 80 g/h so that the liquid level of the first reactor was maintained constant. The liquid taken out was continuously fed into the second reactor at a rate of 80 g/h and the reaction was further performed in the second reactor. […]
The amount of the wet microbial cell added to the 0.3 mM-NaOH aqueous solution was adjusted so that the conversion rate to acrylamide at the outlet of the first reactor was 90% or higher and the concentration of acrylonitrile at the outlet of the second reactor was at the detection limit or less (100 ppm or less). The conversion rate to acrylamide was determined by the analysis of HPLC. […]

Structure (SMILES)	inhibition of reaction by impurity in acrylonitrile
C=CC=O [acrolein]	inhibition of reaction by acrolein was confirmed
c1ccccc1 [benzene]	inhibition of reaction by benzene was confirmed

Source: patent US8329843B2, “Method for producing amide compound” (Mitsui Chemicals, Inc., priority 2005, dated 2012)
